How the values were obtained:
[1] = Stability in solution (UV–vis, ESI–MS) in the presence of Cu(II); type: physicochemical; conditions: Cu 25 μM; for half-life at 50 μM: HEPES buffer with CuCl2, pH 7.4, compound 50 μM, read-out: t1/2, + Cu(II); for half-life at 50 μM / k, + Cu(II) (rate of decay of the absorbance peak) / t1/2, + Cu(II): HEPES pH 7.4, 37 °C
Method: The stability of 1–4 (50 μM) in the absence and presence of CuCl2 (25 μM) was monitored every 10 min using UV–vis for 5 h in buffer ([…], pH 7.4, […]; 1% DMSO) at 37 °C. The resulting spectra were corrected for baseline shifts at 800 nm and the half-life and rate of decay of the absorbance at 250, 385 and 400 nm for 4, [Cu(II)+1], and [Cu(II)+3], respectively, was calculated using the first-order exponential decay function as implemented in Origin 9.1 (OrginLab Corp., Northampton, MA, USA). Additionally, the species present were identified using ESI–MS. Samples containing 1–4 (50 μM) with or without CuCl2 (25 μM) were incubated in ddH2O (1% DMSO) at 37 °C for the selected time points before being freshly frozen using liquid nitrogen and stored at −80 °C until they were thawed immediately before measurement.

Zn(II)–Aβ40/Aβ42 = assay: Aβ aggregation inhibition/disaggregation experiments (gel/western blot, TEM), Zn(II); type: biochemical; conditions: Aβ 25 μM, compound 50 μM, 37 °C, 24 h; gel/western blot and TEM
Method: The ability of 1–4 to control the aggregation of both metal-free Aβ and metal-Aβ in inhibition (Fig. 2) and disaggregation experiments (Supplementary Fig. 1) was evaluated using the two major Aβ isoforms (Aβ40/Aβ42)[1][2][3][6][16] found in the AD-affected brain. Molecular weight (MW) distributions and morphologies of the resulting Aβ species were determined by gel electrophoresis followed by western blotting (gel/western blot) and transmission electron microscopy (TEM). Generally, under the experimental conditions employed herein, compound-free Aβ samples with and without metal ions assemble into a distribution of large aggregates that are too big to penetrate into the gel matrix, which yields very little smearing in the gel/western blots, but they can be visualized by TEM. The administration of compounds, able to interact with Aβ, inhibit the formation of high MW aggregates, and/or disassemble preformed aggregates, typically generates smaller-sized Aβ species that can enter into the gel and produce a substantial amount of streaking compared with the samples containing Aβ only.
Before experiments, Aβ40 or Aβ42 was dissolved in ammonium hydroxide (NH4OH; 1% v/v, aq). The resulting solution was aliquoted, lyophilized overnight and stored at −80 °C. A stock solution of Aβ was then prepared by dissolving lyophilized peptide in 1% NH4OH (10 μl) and diluting with ddH2O. The concentration of the solution was determined by measuring the absorbance of the solution at 280 nm (ɛ=1,450 M^–1 cm^–1 for Aβ40; ɛ=1,490 M^–1 cm^–1 for Aβ42). The peptide stock solution was diluted to a final concentration of 25 μM in Chelex-treated buffered solution containing HEPES ([…]; pH 6.6 for Cu(II) samples; pH 7.4 for metal-free and Zn(II) samples) and NaCl (150 μM). […]
The Aβ samples from in vivo or in vitro experiments were analysed by gel electrophoresis followed by western blotting using an anti-Aβ antibody (6E10)[24][25][27][28][29]. […]

[2] = system: cationic organic radical of ABTS; assay: Trolox equivalent antioxidant capacity (TEAC) assay in M17 cell lysates; type: biochemical, human; conditions: relative to Trolox
Method: The assay employing M17 cell lysates was conducted following the protocol of the antioxidant assay kit purchased from Cayman Chemical Company (Ann Arbor, MI, USA) with minor modifications. For the antioxidant assay using cell lysates, cells were seeded in a six-well plate and grown to ∼80–90% confluence. Cell lysates were prepared following a previously reported method with modifications. M17 cells were washed once with cold PBS (pH 7.4, GIBCO) and harvested by gently pipetting off adherent cells with cold PBS. The cell pellet was generated by centrifugation (2,000g for 10 min at 4 °C). This cell pellet was sonicated on ice (5 s pulses, three times with 20 s intervals between each pulse) in 2 ml of cold Assay Buffer (5 mM potassium phosphate, pH 7.4, containing 0.9% NaCl and 0.1% glucose). The cell lysates were centrifuged at 5,000g for 10 min at 4 °C. The supernatant was removed and stored on ice until use. For standard and samples in 96-well plates, 10 μl of the supernatant of cell lysates was delivered followed by addition of compound, metmyoglobin, ABTS and H2O2 in order. After 5 min incubation at room temperature on a shaker, absorbance values at 750 nm were recorded. The antioxidant concentration was calculated according to the measured absorbance (% inhibition=100 × (A0 – A)/A0, where A0 is absorbance of the supernatant of cell lysates). The measurements were conducted in triplicate.

Compound	half-life at 50 μM [1] [min]	k, + Cu(II) (rate of decay of the absorbance peak) ([1]; compound 50 μM)	t1/2, + Cu(II) ([1]; compound 50 μM)	Modulation of Zn(II)-induced Aβ aggregation (Zn(II)–Aβ40/Aβ42)	Free organic radical scavenging ability (TEAC) [2]	Stability of the complex with Cu(II) ([1]; compound 50 μM, 5 h)
Nc1ccc(NCc2ccccn2)cc1 [compound 1, N^1-(pyridin-2-ylmethyl)benzene-1,4-diamine]	8 ± 3	0.09 ± 0.03 min⁻¹	~5 min	did not show any noticeable activity	greater capacity than 2	
COc1cc(NCc2ccccn2)cc(OC)c1 [compound 2, 3,5-dimethoxy-N-(pyridin-2-ylmethyl)aniline]		too slow to accurately measure the rate	No noticeable spectral changes were observed over 5 h			without any further transformations over the course of 5 h
CN(C)c1ccc(NCc2ccc3ccccc3n2)cc1 [compound 3, N^1,N^1-dimethyl-N^4-(quinolin-2-ylmethyl)benzene-1,4-diamine]	53 ± 3	0.013 ± 0.001 min⁻¹	~50 min	modulates Aβ aggregation involved by both Cu(II) and Zn(II)	greater capacity than 2	
CN(C)c1ccc(NCc2ccc[nH]2)cc1 [compound 4, N^1-((1H-pyrrol-2-yl)methyl)-N^4,N^4-dimethylbenzene-1,4-diamine]	< 1	too rapidly to measure		redirect both Cu(II)- and Zn(II)-induced Aβ aggregation	greater capacity than 2	
